Assay results published in patent US8956824B2, “Methods for identifying allosteric modulators of ship polypeptides” (British Columbia Cancer Agency Branch, priority 2006, dated 2015).
Entries after “also recorded” stand apart in the source; their conditions may differ.

Columns and labels:
LPS-induced plasma TNFα = test: Mouse septicemia model; type: in vivo; conditions: for plasma TNFα level after LPS challenge: oral, 30 min prior to IP 2 mg/kg LPS, blood 2 h later, AQX-016A 20 mg/kg
Excerpt: Mouse septicemia model. […] Blood was drawn 2 hrs later for determination of plasma TNFα by ELISA. Results are representative of 3 independent experiments.

[1] = tested on: SHIP1+/+ and SHIP1−/− BMmφs; test: LPS-stimulated TNFα production in BMmφs; type: cell-based, mouse; conditions: 30 min pretreatment, 10 ng/mL LPS, ELISA
Experimental: Production of SHIP+/+ and SHIP-/- BMMCs and BMnφs. […] LPS stimulation of BMmφs. For the analysis of LPS-stimulated TNFα production, 2 ×10^5 cells were plated the night before in 24 well plates in BMmφp medium. […] Data are expressed as the mean +/- SEM of triplicates and experiments were repeated 3 times. For analysis of intracellular signaling, 2×10^6 cells were plated the night before in 6 cm tissue culture plates. […] Cells were washed with 4° C. PBS and resuspended in lysis buffer (50 mM Hepes, 2 mM EDTA, 1mM NaVO4 , 100 mM NaF, 50 mM NaPPi and 1%NP4O) supplemented with COMPLETETM Protease Inhibitor Cocktail (Roche, Montreal, Canada). Lysates were rocked at 4° C. for 30 min and clarified by centrifuging 20 min at 12000×g. Lysates were then made 1× in Laemmli's buffer, boiled 2 min and loaded onto 7.5% SDS polyacrylamide […]. Immunoblot analysis for phospho PKB (Cell Signalling, Mississauga, Ont), SHIP1 and actin (Santa Cruz, Santa Cruz, Calif.) were carried out as described previously (18). Results are representative of 3 independent experiments.

[2] = biological target: T1, C2 domain deleted (ΔC2) SHIP1 enzyme (Mus musculus, UniProt Q9ES52, DEL725-860/G861A/K862A/M863A); test: In vitro SHIP enzyme assay, C2 domain deleted SHIP1; type: biochemical; conditions: FIG. 4B, FIG. 10
T1 construct: Full length, wild-type SHIP1 enzyme (wt) or SHIP1 enzyme in which the PH or C2 domains were deleted; made in house; 293T cells are stated only for the wild-type enzyme
T1 sequence (Q9ES52 with tags, fused parts or gaps DEL725-860/G861A/K862A/M863A limits assumed): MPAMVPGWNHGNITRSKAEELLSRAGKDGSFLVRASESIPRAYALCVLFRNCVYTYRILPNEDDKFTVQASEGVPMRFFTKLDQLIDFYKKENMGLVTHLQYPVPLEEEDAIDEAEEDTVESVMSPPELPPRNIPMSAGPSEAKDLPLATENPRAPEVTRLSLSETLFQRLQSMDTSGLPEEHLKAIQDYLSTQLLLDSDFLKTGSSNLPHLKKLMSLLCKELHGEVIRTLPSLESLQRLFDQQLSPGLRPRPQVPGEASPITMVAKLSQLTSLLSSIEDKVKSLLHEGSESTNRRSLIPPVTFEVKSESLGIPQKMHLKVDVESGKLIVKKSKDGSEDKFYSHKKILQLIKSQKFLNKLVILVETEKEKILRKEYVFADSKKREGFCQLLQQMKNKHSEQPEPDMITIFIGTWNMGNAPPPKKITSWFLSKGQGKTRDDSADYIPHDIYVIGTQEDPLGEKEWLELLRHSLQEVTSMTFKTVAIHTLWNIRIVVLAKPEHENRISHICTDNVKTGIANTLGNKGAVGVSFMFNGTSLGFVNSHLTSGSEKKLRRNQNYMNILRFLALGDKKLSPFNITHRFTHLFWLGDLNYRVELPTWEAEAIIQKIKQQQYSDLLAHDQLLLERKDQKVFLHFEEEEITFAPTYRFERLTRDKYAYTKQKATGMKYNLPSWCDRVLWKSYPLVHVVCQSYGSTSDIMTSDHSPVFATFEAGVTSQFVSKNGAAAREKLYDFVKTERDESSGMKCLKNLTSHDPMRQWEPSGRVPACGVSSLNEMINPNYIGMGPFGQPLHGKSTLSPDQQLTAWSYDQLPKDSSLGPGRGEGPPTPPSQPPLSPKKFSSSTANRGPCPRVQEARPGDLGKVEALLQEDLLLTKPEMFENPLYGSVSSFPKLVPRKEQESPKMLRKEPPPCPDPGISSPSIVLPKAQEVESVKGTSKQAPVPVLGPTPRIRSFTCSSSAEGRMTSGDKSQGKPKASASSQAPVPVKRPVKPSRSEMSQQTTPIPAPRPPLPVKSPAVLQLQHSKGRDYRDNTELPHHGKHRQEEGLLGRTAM
Excerpt: The mouse SHIP1 ΔC2 domain deletion mutant was generated by a standard PCR-based methodology using the primer pairs listed above, which in addition to being complementary to sequences immediately upstream and downstream of the C2 domain (amino acid residues 725 to 863), introduces a NotI restriction site. The PCR-products were digested with ClaI and NotI, and NotI and XbaI for the upstream and downstream fragments, respectively. Products were then resolved and imaged on a 1% agarose gel containing ethidium bromide and the appropriate sized fragments excised and purified using a column gel extraction kit (Qiagen, Mississauga, ON). In parallel, pME18S plasmid containing the cDNA for N-terminal His6-tagged SHIP1 was digested with ClaI and NotI, resolved and purified as before. Upstream fragment, downstream fragment and digested pME18S-SHIP plasmid were ligated to yield a plasmid coding for SHIP1 with the C2 domain deleted. An N-terminal His6 C2 domain was also generated by PCR using the primer pair indicated above and the resulting product inserted into the pET28C bacterial expression vector using EcoRI and NdeI restriction sites.
In vitro SHIP enzyme assay. The SHIP enzyme assay was performed in 96-well microtitre plates with 10 ng of enzyme/well in a total volume of 25 μL of 20 mM Tris HCl, pH 7.5 and 10 mM MgCl2. SHIP1 enzyme was incubated with test extracts (provided in DMSO) or vehicle for 15 mM at 23° C. before the addition of 100 μM inositol-1,3,4,5-tetrakisphosphate (Echelon Biosciences Inc, Salt Lake City, Utah). The reaction was allowed to proceed for 20 min at 37° C. and the amount of inorganic phosphate released assessed by the addition of Malachite Green reagent followed by an absorbance measurement at 650 nm (15). SHIP2 enzyme was purchased from Echelon Biosciences (Salt Lake City, Utah) and an equivalent amount of inositol phosphatase activity was used in the in vitro enzyme assay. Enzyme data are expressed as the mean of triplicates+/−SEM. Experiments were performed at least 3 times.

| Molecule | plasma TNFα level after LPS challenge (LPS-induced plasma TNFα) | LPS-stimulated TNFα production, SHIP1+/+ vs SHIP1−/− macrophages [1] | activation of SHIP1 with C2 domain deleted [2] | activation of SHIP1 with C2 domain deleted ([2]; listed as PI(3,4)P2) | bioavailability (LPS-induced plasma TNFα; concluded from septicemia (oral) and cutaneous anaphylaxis (topical) models) |
| --- | --- | --- | --- | --- | --- |
| Cc1cc(O)cc2c1[C@]1(C)CC[C@H]3C(C)(C)CCC[C@]3(C)[C@H]1C2 [AQX-MN100] | efficiently inhibited the LPS-induced elevation of plasma TNFα levels; also recorded: inhibits LPS-induced plasma TNFα levels in mice | selectively inhibited TNFα production from SHIP1+/+ but not SHIP1−/− macrophages; also recorded: inhibits TNFα production from LPS stimulated SHIP1+/+ but not −/− BMmφs | impaired the ability of SHIP1 to be activated; also recorded: abrogates the ability of SHIP1 to be activated | – | – |
| phosphatidylinositol-3,4-bisphosphate [PI-3,4-P2, reference compound] | – | – | impaired the ability of SHIP1 to be activated | abrogates ability to be activated | – |
| Cc1cc(O)c(O)c2c1[C@]1(C)CC[C@H]3C(C)(C)CCC[C@]3(C)[C@H]1C2 [AQX-016A] | reduced the level of TNFα to the same extent as the control | preferentially inhibited LPS-stimulated TNFα production in SHIP1+/+ than in SHIP1−/− | – | – | both orally and topically bioavailable |
